What was measured:
[1] = system: diabetes-induced hyperalgesia; experiment: Streptozotocin diabetes model, diabetes-induced hyperalgesia to mechanical stimuli; assay type: in vivo, Sprague-Dawley rats; conditions: four weeks after streptozotocin 70 mg/kg; intradermal sterile water then 1 µg
Experimental: Persons with uncontrolled or poorly controlled diabetes frequently experience hyperalgesia. The role of PKCε in diabetic neuropathy was examined in a model of diabetes in which male Sprague-Dawley rats receive subcutaneous injection of streptozotocin (70 mg/kg), a pancreatic β-cell toxin. These rats display hyperglycemia and glucosuria within 24 hours after the injection and show decreased nociceptive thresholds in response to mechanical stimuli administered by Ugo Basile analgesymeter in the hind paw after one week (Ahlgren, S.C. et al, J. Neurophysiology, 68, 2077-2085 (1992); Ahlgren, S.C. and Levine, J.D., Neuroscience 52, 1049-1055 (1993)). Four weeks after the streptozotocin injection, each rat received no treatment (n=8) or an intradermal injection of sterile water followed by a intradermal injections of (1) 1 µg bisindolymaleimide, a protein kinase C inhibitor (n=4; labeled "BIM" on Figure 12B), (2) 1 µg εV1-2, a PKCε inhibitory peptide (n=8; labeled "PKCεI" on Figure 12B), or (3) 1 µg S-VεV1-2, a scrambled version of the εV1-2 peptide (n=4; labeled "PCKε1 SCR" on Figure 12B) and were subsequently exposed to mechanical stimuli.

TTX-RINa = assay type: cell-based, rat
[2] = system: isoproterenol-induced hyperalgesia; experiment: Isoproterenol-induced mechanical hyperalgesia, paw-withdrawal threshold; assay type: in vivo, rat; conditions: intradermal; BIM 1 µg, WIPTIDE 100 ng; propranolol dose not given
Experimental: To examine the role of β-AR in epinephrine-induced hyperalgesia, propranolol, a β-AR antagonist, and isoproterenol, a selective β-AR agonist, were administered by intradermal injection.
The roles of PKC, protein kinase A ("PKA") and the µ-opioid receptor in mediating epinephrine-induced hyperalgesia were assessed by measuring the effects of: Rp-adenosine 3', 5'-cyclic monophosphate ("Rp-cAMPs") and WIPTIDE, both inhibitors of PKA; SQ22536, an inhibitor of adenylyl cyclase, an enzyme activated by PKA; bisindolymaleimide ("BIM"), a nonselective inhibitor of PKC isozymes; and [D-Ala^2,N-Me-Phe^4,Gly^5-ol]-enkephalin ("DAMGO"), p-opioid receptor agonist. The dose for each inhibitor was 1µg, except for WIPTIDE, which was administered in a 100ng dose. […] A large numeric value means more hyperalgesia.

[3] = system: PGE2-induced hyperalgesia; experiment: PGE2-induced mechanical hyperalgesia, paw-withdrawal threshold; assay type: in vivo, rat; conditions: same dose as for epinephrine: BIM 1 µg, WIPTIDE 100 ng
Experimental: The roles of PKC, protein kinase A ("PKA") and the µ-opioid receptor in mediating epinephrine-induced hyperalgesia were assessed by measuring the effects of: Rp-adenosine 3', 5'-cyclic monophosphate ("Rp-cAMPs") and WIPTIDE, both inhibitors of PKA; SQ22536, an inhibitor of adenylyl cyclase, an enzyme activated by PKA; bisindolymaleimide ("BIM"), a nonselective inhibitor of PKC isozymes; and [D-Ala^2,N-Me-Phe^4,Gly^5-ol]-enkephalin ("DAMGO"), p-opioid receptor agonist. The dose for each inhibitor was 1µg, except for WIPTIDE, which was administered in a 100ng dose. DAMGO was co-injected with epinephrine whereas the other inhibitors were applied 15 minutes prior to epinephrine injection. […] TABLE 1: Percentage decrease in nociceptive threshold in response to epinephrine, PGE2 or isoproterenol (each 100 ng) and effects of DAMGO, SQ22536, BIM, Rp-cAMPs (all 1 µg) or WIPTIDE (0.1 µg). A large numeric value means more hyperalgesia.
For mechanical nociceptive testing, the nociceptive flexion reflex was quantified using an Ugo Basile analgesymeter that applies a constantly increasing force measured in grams (Stoelting, Chicago, IL; K. O. Aley, J. D. Levine, J. Neurosci. 17, 8018-23 (1997)). The mean basal mechanical threshold for rats used in these experiments was 105.3+/-2.8 grams. The effects of hyperalgesia-inducing agents epinephrine (100ng) and PGE2 (100ng) on mechanical nociceptive thresholds were determined by measuring paw withdrawal frequencies at 15, 20, and 25 minutes after administration of the hyperalgesic agent and then calculating the mean of these three readings.

[4] = system: prolonged PGE2-induced hyperalgesia; experiment: Chronic inflammatory pain model: prolonged hyperalgesia in carrageenan-sensitized rats (Randall-Selitto paw-withdrawal test); assay type: in vivo
From the text: In order to investigate the role, if any, of PKCε in chronic inflammatory pain, the following model system for chronic inflammatory pain was developed. Rats received intradermal hind paw injections of carrageenan, an inflammatory agent. […] This was considered an acute response to the carrageenan-induced inflammation. Although administration of Prostaglandin E2 ("PGE2"), 5-hydroxytryptamine ("5-HT," serotonin) or CGS-21680 (an adenosine A2-selective receptor agonist) normally causes untreated rats (that is, rats that have not received carrageenan injections) to experience hyperalgesia lasting up to 6 hours, the hyperalgesia experienced by carrageenan-sensitized rats following administration of any one of these substances lasted up to 24 hours.
The prolonged PGE2-induced hyperalgesia normally seen in carrageenan-sensitized rats was inhibited by administration of BIM or εV1-2.
To examine whether protein kinase C modulates the processes by which a brief inflammatory event causes prolonged hyperalgesia many days later, rats received carrageenan and 1µg BIM injections at the same time. Hyperalgesia was measured 72 hours later, when the rats were treated PGE2. […] Therefore, administration of an inhibitor of PKC either at approximately the same time as the inflammatory agent giving rise to chronic, prolonged hyperalgesia or at about the same time as the hyperalgesia-inducing stimulus can lessen such chronic hyperalgesia.

[5] = 1µM epinephrine with 100µM BIM v. epinephrine alone
[6] = 1µg at the same time as carrageenan

Question: What does the source list for CN(C)CCCn1cc(C2=C(c3c[nH]c4ccccc34)C(=O)NC2=O)c2ccccc21 [BIM, bisindolymaleimide I]?
Answer: effect on diabetes-induced decrease in nociceptive threshold [1]: markedly reduced; mean peak current increase (TTX-RINa; [5]): 32%; number of neurons responsive to epinephrine (TTX-RINa; [5]): 5 out of 11; effect on epinephrine-induced potentiation of TTX-RINa (TTX-RINa; 1µM epinephrine, 2µM propranolol, 5µM phentolamine, 100µM Rp-cAMPs, 100µM BIM): significantly decreased; effect on isoproterenol-induced hyperalgesia [2]: significantly attenuated; effect on PGE2-induced hyperalgesia [3]: had no effect; effect on acute hyperalgesia normally induced by carrageenan exposure [4, 6]: attenuated; effect on prolonged hyperalgesia on PGE2 72 or more hours after carrageenan exposure [4, 6]: attenuated; effect on prolonged PGE2-induced hyperalgesia in carrageenan-sensitized rats ([4]; 1µg several days after the carrageenan injection, then PGE2): inhibited
